pIC50: −log10 of the molar value. Where two headings read alike, the source gives them in different places.
Assays:
5HT1A receptor = molecular target: T1, 5HT1A receptor (Rattus norvegicus, UniProt P19327); experiment: Brain Serotonin (5HT1A) radioreceptor Assay (3H-8-OH DPAT displacement, rat frontal cortex membranes); format: binding; settings: 3H-8-OH DPAT
T1 construct: Membrane fragments were prepared from prefrontal cortex; from tissue; host or cells: prefrontal/frontal cortex of female rats (about 150 g), membrane fragments
T1 sequence (P19327 1-422): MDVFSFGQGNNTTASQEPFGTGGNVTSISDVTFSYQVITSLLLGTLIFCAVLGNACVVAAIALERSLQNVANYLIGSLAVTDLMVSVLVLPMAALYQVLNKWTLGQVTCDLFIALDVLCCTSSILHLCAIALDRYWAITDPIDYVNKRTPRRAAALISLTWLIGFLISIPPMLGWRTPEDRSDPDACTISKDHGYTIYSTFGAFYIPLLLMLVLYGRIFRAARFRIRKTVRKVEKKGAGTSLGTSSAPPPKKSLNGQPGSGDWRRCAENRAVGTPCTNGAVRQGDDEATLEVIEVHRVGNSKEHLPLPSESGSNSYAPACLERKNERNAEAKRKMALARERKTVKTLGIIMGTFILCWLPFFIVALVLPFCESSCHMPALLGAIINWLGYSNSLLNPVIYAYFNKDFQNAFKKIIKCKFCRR
Description: Brain Serotonin (5HT1A) radioreceptor Assay
The text objects of this procedure were rat frontal cortex membranes. Membrane fragments were prepared from prefrontal cortex disected from brains obtained from female rats (≈150 g). The 5HT1A sites were labeled with ^3 H-8-OH dipropylaminotetralin (8-OH-DPAT). Membrane fragments, ^3 H-8-OH DPAT, TRIS buffer (pH 7.4) and unlabeled compound were incubated for 10 minutes at 37° C. and then for 10 minutes at 4° C. Separation of bound from unbound ^3 H-8-OH DPAT was performed by vacuum filtration on a glass fiber disc. The ability of a compound to compete with ^3 H-8-OH DPAT for binding sites is a measure of the affinity of the compound for the 5HT1A receptor. Specific binding was determined by the difference between total counts bound and the counts bound in the presence of […] 5-hydroxytryptamine.

[1] = system: alpha1 adrenergic receptor; experiment: Alpha1 Blockade in vivo (inhibition of phenylephrine pressor response); design: species or system spontaneously hypertensive rats (SHR); settings: anesthetized, vagotomized SHR; i.v.
Description: The potency of these compounds as alpha1 adrenergic antagonists was determined using the following procedure: adult male spontaneously hypertensive rats (SHR) were anesthetized and bilaterally vagotomized. A carotid artery and jugular vein were cannulated for monitoring mean arterial blood pressure and drug administration, respectively. The percent inhibition of alpha1 adrenergic receptor activation was quantified by measuring pressor responses to phenylephrine before and after antagonist treatment. […] Compounds were tested to the limits of their solubility for intravenous administration.

serotonin receptors = experiment: Inhibition of 5-HTP-Induced Head Twitching; format: in vivo; settings: male CD1 mice; for Inhibit. of 5-HTP-Head Twitch ED50: 5-HTP 160 mg/kg i.v. after one hour
Description: Inhibition of 5-HTP-Induced Head Twitching
This test detects compounds with antagonistic activity of serotonin receptors in vivo, and is a modified procedure of Corne, Pickering and Warner, Brit. J. Pharmacol. 20, 106 (1963). Groups of male CD1 mice were fasted overnight but allowed water ad libitum. They were deprived of water during the course of the experiment. The mice were weighed and treated orally or parenterally with the test compound in a dose volume of 10 ml/kg. Doses of test substance were calculated based upon the active compound. Substances for oral administration were dissolved or suspended in a 0.5% aqueous methylcellulose (15 centipoises) vehicle containing 4 ml of Tween 80/l.
A dose of 160 mg/kg of L-5-hydroxytryptophan (5-HTP) was administered i.v. in a dose volume of 5 ml/kg after one hour. The test mouse was restrained in a rodent restrainer that allowed the tail to extend out the back. The tail was then placed in tepid (but not scalding) water for approximately 10 seconds to soften the skin and dilate the tail vein. A 1 ml syringe and 25 gauge (5/8 inch) needle was used to administer the 5-HTP solution into one of the lateral tail veins.
A timer was started after dosing with 5-HTP to the first animal of the test group. […] A head twitch involves the head, neck and ears and has the appearance of an exaggerated pinal reflex. The number of head twitches for each individual vehicle-treated mouse were recorded to establish a historical baseline.
The active compounds in the test block the twitch response (the response rated all or none).

5HT2 [2] = molecular target: T2, 5HT2 (Rattus norvegicus, UniProt P14842); experiment: Brain Serotonin (5-HT2) Radioreceptor Assay (3H-ketanserin displacement, rat frontal cortex membranes); format: binding; design: dissected from brains obtained from female rats; from tissue; host or cells: frontal cortex of female rats (about 150 g), membrane fragments; settings: 15 min at 37° C
T2 sequence (P14842 whole entry, the tested form may be a part): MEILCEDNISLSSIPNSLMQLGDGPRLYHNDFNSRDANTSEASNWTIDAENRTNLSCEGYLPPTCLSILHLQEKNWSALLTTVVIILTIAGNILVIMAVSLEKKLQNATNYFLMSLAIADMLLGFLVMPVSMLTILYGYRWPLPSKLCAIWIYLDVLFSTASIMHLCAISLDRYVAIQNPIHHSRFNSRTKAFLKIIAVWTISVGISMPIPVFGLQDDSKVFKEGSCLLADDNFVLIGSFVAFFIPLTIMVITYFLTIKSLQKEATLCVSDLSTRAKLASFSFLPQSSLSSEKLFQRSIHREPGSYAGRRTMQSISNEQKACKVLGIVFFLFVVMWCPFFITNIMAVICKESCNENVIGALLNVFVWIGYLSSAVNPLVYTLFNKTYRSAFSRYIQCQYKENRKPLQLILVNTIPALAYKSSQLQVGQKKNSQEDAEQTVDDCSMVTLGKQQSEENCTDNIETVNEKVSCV
Description: Brain Serotonin (5-HT2) Radioreceptor Assay
The test objects of this Example were rat frontal cortex membranes. Mebrane fragments were prepared from the frontal cortex dissected from brains obtained from female rats (≈150 g). […] Compound bound to the receptor site was separated from the remaining unbound compound by vacuum filtration. […] Specific binding was determined by the difference between total counts bound and counts bound in the presence of 10^-6 M methysergide.

5HT2 [3] = molecular target: T2, 5HT2; experiment: 5HT2 Blockade in vivo (antagonism of 5HT induced pressor responses); design: Spontaneously hypertensive rats were anesthetized with sodium pentobarbital; from tissue; host or cells: whole animal: anesthetized spontaneously hypertensive rats (vasculature); species or system spontaneously hypertensive rats; settings: for ED50: rat, iv, read-out: 5-HT-Induced Pressor Response ED50
Description: Antagonism of 5HT induced pressor responses was used to assess 5HT2 blockade in vivo. Spontaneously hypertensive rats were anesthetized with sodium pentobarbital (50 mg/kg, i.p.). The right carotid artery and vein were cannulated for pressure recording and drug injection, respectively. The trachea was cannulated, the rat placed on a respirator and ventilated with room air at 50-60 breaths/minute. Rats were pretreated with prazosin hydrochloride (1 mg/kg, i.v., blous) and pentolinium tartrate (5 mg/kg, i.v., bolus). After 10 minutes equilibration, the rat was challenged with 5HT (100 μg/kg) which elevates mean arterial pressure (MAP) 60-100 mmHg; non-responsive rats were discarded.
After a baseline had been reestablished, bolus injections of 5HT (100 μg/kg, i.v.) were given and the MAP responses were evaluated both pre- and post-drug administration. 5HT challenges were repeated 10 minutes after each dose of antagonist. Up to three cumulative doses of the antagonist were given to a single animal.

[4] = system: Serotonin-Induced Smooth Muscle Contractions (rabbit thoracic aorta); experiment: Inhibition of Serotonin-Induced Smooth Muscle Contractions (isolated thoracic aorta strips); format: cell-based; settings: concentration shifting the serotonin dose curve 10x to the right, 10 min preincubation, read-out: 5-HT-Induced Smooth Muscle Contraction DR10
Description: Inhibition of Serotonin-Induced Smooth Muscle Contractions
The test objects of this Example were canines and rabbits. Rabbits were sacrificed by T-61 injection and the thoracic aorta was removed immediately. The aorta was placed in warmed, oxygenated Krebs-Henseleit buffer. After the tissue was cleaned, a 2-3 mm wide strip was cut helically from each aorta. A strip of approximately 5 cm was suspended in Krebs-Henseleit buffer at 37° C. in a 25 ml tissue bath and the tissues equilibrated at an initial resting tension of 4 g for 90-120 minutes. An initial serotonin dose curve, 0.01-10 μM was then done on each tissue, followed by a 60 minute washout and reequilibration. The test drug was then added for a 10 minute preincubation and another serotonin dose curve was done using 0.01-100 μM.
Results are expressed as DR10 values. This is the concentration of the compound required to shift the serotonin dose curve 10x to the right, i.e., the concentration of antagonist at which the concentration of serotonin required for 50% maximal contraction is increased ten-fold.

[5] = system: serotonin-induced platelet aggregation; experiment: Platelet Aggregation Assay (serotonin-induced); format: cell-based; settings: human plasma, serotonin 5 μM
Description: Platelet Aggegation Assay
Human blood was collected into tubes containing sodium citrate. The plasma was separated by centrifugation and was used as the source of platelets. Serotonin (5 μM) was used as the agonist to induce platelet aggregation. A control aggregation curve (as measured by the decrease in absorbance in transmitted light) was obtained in the presence of serotonin and in the absence of test compound. The test compound was added to an identical sample in a cuvette for one minute before addition of serotonin to yield the experimental curve.

[6] = read-out: Brain 5-HT1 Receptor % displaced (% inhibition)

Structure (SMILES): O=C(c1ccc(F)cc1)C1CCN(CCn2c(=O)[nH]c3sccc3c2=O)CC1 [Example 2, 3-[2-[4-(4-Fluorobenzoyl)piperidin-1-yl]ethyl]thieno[2,3-d]pyrimidine-2,4-dione]
- inhibition at 10 µM (5HT1A receptor; @ 10 μM, read-out: Brain 5-HT1 Receptor % displaced (% inhibition)): 24%
- Phenylephrine-Induced Pressor Response ED50 [1]: < 3.0 mg/kg
- Inhibit. of 5-HTP-Head Twitch ED50 (serotonin receptors): 0.26 mg/kg, p.o.
- pIC50 (5HT2 [2]): 8.80
- ED50 (5HT2 [3]): 0.016 mg/kg

Structure (SMILES): O=c1[nH]c2cscc2c(=O)n1CCN1CCC(=C(c2ccc(F)cc2)c2ccc(F)cc2)CC1 [Example 4, 3-[2-[4-[Bis(4-fluorophenyl)methylene]piperidin-1-yl]ethyl]thieno[3,4-d]pyrimidine-2,4-dione]
- inhibition at 1 µM (5HT1A receptor; [6]): 20%
- IC (10-fold shift) ([4]; Oryctolagus cuniculus, 10 min): 0.0165 µM
- pIC50 ([5]; Platelet): 5.28
- Phenylephrine-Induced Pressor Response ED50 [1]: > 10 mg/kg
- Inhibit. of 5-HTP-Head Twitch ED50 (serotonin receptors): ≈ 10 mg/kg, p.o.
- pIC50 (5HT2 [2]): 8.55
- ED50 (5HT2 [3]): 0.16 mg/kg

Structure (SMILES): O=c1[nH]c2ccsc2c(=O)n1CCN1CCC(=C(c2ccc(F)cc2)c2ccc(F)cc2)CC1 [Example 5, 3-[2-[4-[Bis(4-fluorophenyl)methylene]piperidin-1-yl]ethyl]thieno[3,2-d]pyrimidine-2,4-dione]
- inhibition at 1 µM (5HT1A receptor; [6]): 3%
- IC (10-fold shift) ([4]; Oryctolagus cuniculus, 10 min): 0.1 µM
- pIC50 ([5]; Platelet): 5.74
- Phenylephrine-Induced Pressor Response ED50 [1]: > 10 mg/kg
- Inhibit. of 5-HTP-Head Twitch ED50 (serotonin receptors): 1.78 mg/kg, p.o.
- pIC50 (5HT2 [2]): 8.15
- ED50 (5HT2 [3]): 0.017 mg/kg

Structure (SMILES): O=c1[nH]c2cocc2c(=O)n1CCN1CCC(=C(c2ccc(F)cc2)c2ccc(F)cc2)CC1 [Example 9, 3-[2-[4-[Bis(4-fluorophenyl)methylene]piperidin-1-yl]ethyl]furo[3,4-d]pyrimidine-2,4-dione]
- inhibition at 1 µM (5HT1A receptor; [6]): 12%
- IC (10-fold shift) ([4]; Oryctolagus cuniculus, 10 min): 0.01 µM
- pIC50 ([5]; Platelet): 5.20
- Phenylephrine-Induced Pressor Response ED50 [1]: > 10 mg/kg
- Inhibit. of 5-HTP-Head Twitch (result in words) (serotonin receptors; @ 10 (mg/kg, p.o.)): Inact.
- pIC50 (5HT2 [2]): 8.38
- ED50 (5HT2 [3]): 0.02 mg/kg

Structure (SMILES): O=C(c1ccc(F)cc1)C1CCN(CCn2c(=O)[nH]c3cscc3c2=O)CC1 [Example 10, 3-[2-[4-(4-Fluorobenzoyl)piperidin-1-yl]ethyl]thieno[3,4-d]pyrimidine-2,4-dione]
- pIC50 (5HT1A receptor; rat frontal cortex membranes, pH 7.4, read-out: Brain 5-HT1 Receptor IC50): 4.92
- IC (10-fold shift) ([4]; Oryctolagus cuniculus, 10 min): 0.00524 µM
- pIC50 ([5]; Platelet): 7.70
- Phenylephrine-Induced Pressor Response ED50 [1]: < 10 mg/kg
- Inhibit. of 5-HTP-Head Twitch ED50 (serotonin receptors): 0.63 mg/kg, p.o.
- pIC50 (5HT2 [2]): 9.48
- ED50 (5HT2 [3]): 0.888 mg/kg

Structure (SMILES): CC(=O)n1c(=O)n(CCN2CCC(C(=O)c3ccc(F)cc3)CC2)c(=O)c2cscc21 [Example 11, 1-Acetyl-3-[2-[4-(4-fluorobenzoyl)piperidin-1-yl]ethyl]thieno[3,4-d]pyrimidine-2,4-dione]
- inhibition at 1 µM (5HT1A receptor; [6]): 0%
- pIC50 ([5]; Platelet): 7.05
- Phenylephrine-Induced Pressor Response ED50 [1]: 10.0 mg/kg
- pIC50 (5HT2 [2]): 7.90
- ED50 (5HT2 [3]): 0.029 mg/kg

Structure (SMILES): Cn1c(=O)n(CCN2CCC(C(=O)c3ccc(F)cc3)CC2)c(=O)c2cscc21 [Example 14, 3-[2-[4-(4-Fluorobenzoyl)piperidin-1-yl]ethyl]-1-methylthieno[3,4-d]pyrimidine-2,4-dione]
- inhibition at 1 µM (5HT1A receptor; [6]): 31%
- pIC50 ([5]; Platelet): 7.40
- Phenylephrine-Induced Pressor Response ED50 [1]: < 10 mg/kg
- Inhibit. of 5-HTP-Head Twitch ED50 (serotonin receptors): 2.96 mg/kg, p.o.
- pIC50 (5HT2 [2]): 8.15
- ED50 (5HT2 [3]): 0.018 mg/kg

Structure (SMILES): Cc1nc2sccn2c(=O)c1CCN1CCC(=C(c2ccc(F)cc2)c2ccc(F)cc2)CC1 [Ritanserin, reference compound]
- IC (10-fold shift) [4]: 1.0 nM
- pIC50 [5]: 5.92
- Phenylephrine-Induced Pressor Response ED50 [1]: 5.36 mg/kg
- Inhibit. of 5-HTP-Head Twitch ED50 (serotonin receptors): 0.32 mg/kg, p.o.
- 5-HT-Induced Pressor Response ED50 (5HT2 [3]; anesthetized SHR, 5HT 100 μg/kg i.v., cumulative doses of antagonist): 0.008 mg/kg
